Legend:
[1] = test system: platelets (Human Platelet Rich Plasma); assay: In vitro inhibition of ADP-induced platelet aggregation; type: cell-based; settings: submaximal ADP (1-4 μM), mean ± s.d.
Protocol: The method used in the assays is substantially the same as described in following reference: • * Sales, E., at al., Br. J. Pharmacol. 112 (1994); 1071-1076.
The compounds are tested at four different concentrations, using platelet rich plasma from not less than 6 different healthy human donors. The results obtained are compared to those from 5-isosorbide mononitrate, which is used as reference product.
The results are shown in table 2 and are expressed as IC50 (inhibitory concentration 50), which is the concentration of each of the tested compounds yielding an inhibition equal to 50% of the aggregation obtained with a submaximal concentration (1-4 μM) of ADP (a submaximal concentration of ADP is the minimal amount of ADP which produces the maximal aggregation).

[2] = test system: heparinized plasma (plasma lipoproteins); assay: Inhibition of plasma oxidation induced by Cu2+ (absorbance 234 nm); type: biochemical; settings: compounds at 10 μM; 50 μM CuSO4; mean ± s.e.m.
Protocol: The method used in the assays to determine the effect of compounds on the capacity of oxidation of the plasma is substantially the same as described in Spranger T. et al., Chem Phys Lipids 1998; 91: 39-52.
Lipoprotein oxidation induced in vitro in plasma is expected to represent a relevant model of the lipoprotein oxidation in the arterial wall. Oxidation of plasma lipoproteins was assessed as the capacity of oxidation of heparinized plasma and was measured by spectrophotometry as in increase in absorbance at 234 nm. The compounds were added in vitro to determine their inhibitory activity over the capacity of oxidation of plasma induced by Cu^2+ (CuSO4). Heparinized plasma was diluted with phosphate-buffered saline solution (PBS) containing 0.16 M NaCl, and the oxidation was started by 50 μM CuSO4. Experimental samples were incubated at 37° C. and the increase in absorbance at 234 nm was automatically recorded every 15 min for at least 12 h. The effect of compounds over the capacity of oxidation of plasma induced by Cu^2+ was tested at 7 different concentrations using heparinizaded plasma from 7 different healthy donors.

LDL = assay: Inhibition of LDL oxidation induced by haemin and H2O2 (conjugated dienes, 234 nm); type: biochemical, human; settings: compounds at 10 μM; 2.5 μM haemin and 5 μM H2O2; mean ± s.e.m.
From the text: The method used in the assays to determine the effect of the compounds on LDL oxidation is substantially the same as described in the following references: • Sprenger T., et al., Chem. Phys. Lipids 1998; 91:39-52 • Lynch S. M., et al., Biochim. Biophys. Acta 2000; 1485:11-22 • Pedreño J., et al., Thromb. Res. 2000; 99: 51-60.
The method used in the assays to isolate LDL particles from fresh human plasma is substantially the same as described in Pedreño J., et al., Atherosclerosis 2001; 155: 99-112.
Oxidative modification of low-density lipoprotein (LDL) is currently believed to be a central event it the development of atherosclerotic cardiovascular disease. The exposition of LDL to globin-free haemin (the complex of ferric ion (Fe^3+) with protoporphyrin IX), derived from the haemoglobin in circulating erythrocytes, serves as a physiological source of pro-oxidant Fe^3+ capable to promoting LDL oxidation. The compounds were added in vitro to determine their inhibitory activity on LDL oxidation induced by haemin and H2O2. LDL at a final protein concentration of 0.2 mg/ml was incubated in the presence of 2.5 μM haemin and 5 μM H202. Oxidative modification of LDL particles was assessed by measurement of conjugated dienes. Experimental samples were incubated at 37° C. and the increase in absorbance at 234 nm was automatically recorded every 5 min for at least 5 h. The effect of compounds on the LDL oxidation induced by haemin was tested at 7 different concentrations using LDL preparations from 7 different healthy donors.

[3] = test system: Rats, left carotid artery thrombosis (FeCl3); assay: In vivo synergistic antithrombotic effect, FeCl3 carotid artery thrombosis, single drugs and combinations; design: species or system rat; settings: Compound 12 22.3 mg/Kg, oral, acute the day of study
Protocol: The method used is substantially the same as described by Kurz (Kurz K. D., at al., Thromb. Res. 1990, 60: 269-280) and modified by Feuerstein (Feuerstein G. Z., et al., Artherioscler, Thromb. Vasc. Biol. 1999, 19: 2554-25562). […]
Forty-five minutes after dosing administration, rats were anaesthetized with sodium pentobarbital (40 mg/kg, i.p.) and they were placed later dorsally on a heated (37° C.) surgical board.
The left carotid artery was isolated and a Parafilm M sheet (7×20 mm, American National Can) was placed under it. An electromagnetic sounding of flow (Transonic Systems Inc.) was placed on the artery to measure blood flow.
Sixty minutes after product administration, a paper patch saturated with FeCl3 solution (70%) was placed (and not removed for the whole duration of the experiment) on the left carotid artery downstream from the sounding of flow to initiate thrombosis. The blood flow was controlled during the 60 min later to the application of the patch in the artery.
The vessel was considered totally occluded by the thrombus formed when no blood flow was detected (0.0 ml/min). In this model, occlusive thrombus formation usually takes place within 15 to 20 minutes in non-treated animals.
The fractional product concept was used to identify synergy between the compounds. In accordance with this concept, if we consider the full protection of the animal as:
[formula] where A is the rate of animals with thrombotic occlusion in treated group; and B is the rate of animals with thrombotic occlusion in the control group.
For two drugs that act of independent way:
[formula] where A1 is the rate of animals with thrombotic occlusion in the treatment group A1; A2 is the rate of animals with thrombotic occlusion in the treatment group A2; and B is the rate of animals with thrombotic occlusion in the control group
If the protection obtained with the combination of the drugs is higher than the fractional inhibition for two compounds acting independently then synergism is considered to occur.
The results are shown in table 14 and are expressed as rate of animals with thrombotic occlusion in each group.

IC50 [1] | SMILES | % of increment of lag phase with respect to control (plasma oxidation) [2] | % of increment of lag phase with respect to control (LDL oxidation) (LDL) | % of animals protected [3] | Rate of animals with thrombotic occlusion ([3]; control 1)
110 ± 10 µM | O=[N+]([O-])O[C@@H]1CO[C@H]2[C@@H]1OC[C@@H]2S [(1), 2-thioisosorbide 5-mononitrate] | 245 ± 26% | 290 ± 8% | – | –
89 ± 10 µM | CC(=O)S[C@H]1CO[C@H]2[C@@H]1OC[C@H]2O[N+](=O)[O-] [(12), 2-acetylthio-isosorbide-5-mononitrate] | 200 ± 10% | 117 ± 56% | (50%) | 0.5

Source: patent publication US8541607B2, “Disulfide, sulfide, sulfoxide, and sulfone derivatives of cyclic sugars and uses thereof” (Lacer, S.A., priority 2003, dated 2013)
